Laboratory results reported in patent US12281102B2, “Inhibitors of APOL1 and methods of using same” (Vertex Pharmaceuticals Incorporated, priority 2020, dated 2025).
Read-outs that look alike come from different tables or passages of the source.

Target: T1, G1 APOL1 (Homo sapiens, UniProt O14791, I384M/S342G)
T1 construct: expressed in transfected cells
T1 sequence (O14791 28-398 S342G/I384M): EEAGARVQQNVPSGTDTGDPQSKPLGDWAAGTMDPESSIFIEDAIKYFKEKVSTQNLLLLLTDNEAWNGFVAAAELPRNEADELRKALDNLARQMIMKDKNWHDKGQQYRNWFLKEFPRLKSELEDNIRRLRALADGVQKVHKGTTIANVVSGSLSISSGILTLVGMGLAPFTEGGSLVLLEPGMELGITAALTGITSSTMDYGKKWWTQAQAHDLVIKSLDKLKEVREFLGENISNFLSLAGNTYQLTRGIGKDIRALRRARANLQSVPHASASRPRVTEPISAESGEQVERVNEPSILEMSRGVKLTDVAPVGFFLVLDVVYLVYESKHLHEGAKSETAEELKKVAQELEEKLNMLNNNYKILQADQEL
Assay: Acute APOL1 Thallium Assay with inducible stable clones of HEK 293 cells
Assay type: cell-based
Conditions: HEK 293 T-Rex inducible stable clone expressing G1 APOL1
Outline: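 APOL1 pore function was measured as thallium influx, detected by a Tl+-sensitive fluorescent dye loaded as AM ester, on a FLIPR Tetra after Tl+ addition. Cells were HEK T-Rex G1 APOL1 clone DC3.25, 26,000 per well, induced with tetracycline at plating in Opti-MEM assay medium.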

[1] = read-out: Thallium Assay (IC50)

IC50 [1] | Structure (SMILES) | IC50 (Thallium Assay (IC50))
> 1000 nM | O=S(=O)(NC[C@H]1C[C@H](c2c(-c3ccc(F)cc3)[nH]c3c(F)cc(F)cc32)C1)N[C@@H](CO)C(F)F [Compound 347] | 
< 250 nM | O=C1NCC[C@@H]1NC1CC(c2c(-c3ccc(F)cc3)[nH]c3c(F)cc(F)cc23)C1 (stereo partly drawn) [Compound 20, (3S)-3-[[3-[5,7-difluoro-2-(4-fluorophenyl)-1H-indol-3-yl]cyclobutyl]amino]pyrrolidin-2-one] | 
> 1000 nM | O=C1CC[C@@H](C(=O)NC[C@H]2C[C@H](c3c(-c4ccc(F)cc4)[nH]c4c(F)cc(F)cc43)C2)N1 [Compound 235] | 
> 1000 nM | CC[C@@H](NC(=O)OC(C)(C)C)C(=O)NC[C@H]1C[C@H](c2c(-c3ccc(F)cc3)[nH]c3c(F)cc(F)cc32)C1 [Compound 331] | 
> 1000 nM | O=S(=O)(NCCCn1ccnc1)NC[C@H]1C[C@H](c2c(-c3ccc(F)cc3)[nH]c3c(F)cc(F)cc32)C1 [Compound 366] | 
> 1000 nM | O=C(CC1CCCOC1)NC[C@H]1C[C@@H](c2c(-c3ccc(F)cc3)[nH]c3c(F)cc(F)cc32)C1 (stereo partly shown) [Compound 323] | 
> 1000 nM | O=C(CC1CCOCC1)N[C@H]1C[C@H](c2c(-c3ccc(F)cc3)[nH]c3c(F)cc(F)cc32)C1 [Compound 100] | 
> 1000 nM | O=C1c2ccccc2C(=O)N1CCS(=O)(=O)NC[C@H]1C[C@H](c2c(-c3ccc(F)cc3)[nH]c3c(F)cc(F)cc32)C1 [Compound 420] | 
> 1000 nM | CC[C@@H](CO)NCC1CC(c2c(-c3ccc(F)cc3)[nH]c3c(F)cc(F)cc23)C1 (stereo partly shown) [Compound 395] | 
 | NCC(=O)N[C@H]1C[C@H](c2c(-c3ccc(F)cc3)[nH]c3c(F)cc(F)cc32)C1 [Compound 137] | < 250 nM
250 to 1000 nM | NC(=O)CNC(=O)N[C@H]1C[C@H](c2c(-c3ccc(F)cc3)[nH]c3c(F)cc(F)cc32)C1 [Compound 448, 2-(3-((1r,3r)-3-(5,7-difluoro-2-(4-fluorophenyl)-1H-indol-3-yl)cyclobutyl)ureido)acetamide] | 
> 1000 nM | O=C(NC1CC(c2c(-c3ccc(F)cc3)[nH]c3c(F)cc(F)cc23)C1)OCc1ccccc1 (stereo not shown) [Compound 13, benzyl N-[3-[5,7-difluoro-2-(4-fluorophenyl)-1H-indol-3-yl]cyclobutyl]carbamate] | 
250 to 1000 nM | O=C(N[C@H]1C[C@@H](c2c(-c3ccc(F)cc3)[nH]c3c(F)cc(F)cc32)C1)C1COC1 [Compound 71] | 
> 1000 nM | Nc1nonc1C(=O)NC[C@H]1C[C@H](c2c(-c3ccc(F)cc3)[nH]c3c(F)cc(F)cc32)C1 [Compound 329] | 
> 1000 nM | O=C(NC[C@H]1C[C@H](c2c(-c3ccc(F)cc3)[nH]c3c(F)cc(F)cc32)C1)[C@H]1NCC[C@H]1O [Compound 229] | 
> 1000 nM | O=C1CC[C@H](C(=O)NC[C@H]2C[C@H](c3c(-c4ccc(F)cc4)[nH]c4c(F)cc(F)cc43)C2)N1 [Compound 268] | 
250 to 1000 nM | OCC1(NC2CC(c3c(-c4ccc(F)cc4)[nH]c4c(F)cc(F)cc34)C2)CC1 (stereo not shown) [Compound 21] | 
> 1000 nM | CC(=O)N1CC[C@@H](C(=O)NC[C@H]2C[C@H](c3c(-c4ccc(F)cc4)[nH]c4c(F)cc(F)cc43)C2)C1 [Compound 256] | 
> 1000 nM | O=C1CC(C(=O)N[C@H]2C[C@@H](c3c(-c4ccc(F)cc4)[nH]c4c(F)cc(F)cc43)C2)C(=O)N1 (stereo partly shown) [Compound 65] | 
250 to 1000 nM | CC(C)(C)OC(=O)NCC(=O)NC[C@H]1C[C@H](c2c(-c3ccc(F)cc3)[nH]c3c(F)cc(F)cc32)C1 [Compound 215] | 
 | CC(C)(C)OC(=O)N1CCC[C@@H]1C(=O)NC[C@H]1C[C@H](c2c(-c3ccc(F)cc3)[nH]c3c(F)cc(F)cc32)C1 [Compound 279] | > 1000 nM
> 1000 nM | COC1(CC(=O)N[C@H]2C[C@@H](c3c(-c4ccc(F)cc4)[nH]c4c(F)cc(F)cc43)C2)CCC1 [Compound 37] | 
250 to 1000 nM | CC(CO)NCC1CC(c2c(-c3ccc(F)cc3)[nH]c3c(F)cc(F)cc23)C1 (mixture of isomers) [Compound 378] | 
> 1000 nM | Fc1ccc(-c2[nH]c3c(F)cc(F)cc3c2C2CC(NC3COC3)C2)cc1 (stereo not shown) [Compound 22] | 
250 to 1000 nM | CC(=O)NS(=O)(=O)NC[C@H]1C[C@H](c2c(-c3ccc(F)cc3)[nH]c3c(F)cc(F)cc32)C1 [Compound 371] | 
> 1000 nM | O=C1NCC[C@H]1NS(=O)(=O)NC[C@H]1C[C@H](c2c(-c3ccc(F)cc3)[nH]c3c(F)cc(F)cc32)C1 [Compound 332, (3R)-3-[[3-[5,7-difluoro-2-(4-fluorophenyl)-1H-indol-3-yl]cyclobutyl]methylsulfamoylamino]pyrrolidin-2-one] | 
> 1000 nM | Cc1nccn1CC(=O)N[C@H]1C[C@@H](c2c(-c3ccc(F)cc3)[nH]c3c(F)cc(F)cc32)C1 [Compound 63] | 
> 1000 nM | Cn1cc(S(=O)(=O)N[C@H]2C[C@@H](c3c(-c4ccc(F)cc4)[nH]c4c(F)cc(F)cc43)C2)cn1 [Compound 81] | 

IC50 [1] | Structure (SMILES) | IC50 (Thallium Assay (IC50))
> 1000 nM | O=C1CC(CC(=O)NC2CC(Cc3c(-c4ccc(F)cc4)[nH]c4c(F)cc(F)cc34)C2)C(=O)N1 (stereo not shown) [Compound 164] | 
> 1000 nM | CC(C)(C)OC(=O)N1CC[C@H](O)[C@H]1C(=O)NC[C@H]1C[C@H](c2c(-c3ccc(F)cc3)[nH]c3c(F)cc(F)cc32)C1 [Compound 255] | 
> 1000 nM | O=C(CC1NC(=O)NC1=O)NC1CC(Cc2c(-c3ccc(F)cc3)[nH]c3c(F)cc(F)cc23)C1 (stereo not shown) [Compound 168] | 
> 1000 nM | O=S(=O)(N[C@H]1C[C@@H](c2c(-c3ccc(F)cc3)[nH]c3c(F)cc(F)cc32)C1)c1c[nH]cn1 [Compound 80] | 
> 1000 nM | CS(=O)(=O)CCC(=O)N[C@H]1C[C@@H](c2c(-c3ccc(F)cc3)[nH]c3c(F)cc(F)cc32)C1 [Compound 54] | 
> 1000 nM | CN(C)CCC(=O)N[C@H]1C[C@H](c2c(-c3ccc(F)cc3)[nH]c3c(F)cc(F)cc32)C1 [Compound 122] | 
250 to 1000 nM | O=C(NC[C@H]1C[C@H](c2c(-c3ccc(F)cc3)[nH]c3c(F)cc(F)cc32)C1)[C@@H]1C[C@@H](O)CN1 [Compound 225] | 
 | CC(C)(C)OC(=O)N1CC[C@@H]1C(=O)NC[C@H]1C[C@H](c2c(-c3ccc(F)cc3)[nH]c3c(F)cc(F)cc32)C1 [Compound 310] | > 1000 nM
> 1000 nM | O=S(=O)(NCCN1CCC(O)C1)NC[C@H]1C[C@H](c2c(-c3ccc(F)cc3)[nH]c3c(F)cc(F)cc32)C1 (stereo partly shown) [Compound 333] | 
> 1000 nM | CC(=O)NCC(=O)NC[C@H]1C[C@H](c2c(-c3ccc(F)cc3)[nH]c3c(F)cc(F)cc32)C1 [Compound 250] | 
> 1000 nM | O=C(CCN1CCCC1)NC[C@H]1C[C@@H](c2c(-c3ccc(F)cc3)[nH]c3c(F)cc(F)cc32)C1 [Compound 296] | 
250 to 1000 nM | Cn1ccc(CC(=O)N[C@H]2C[C@H](c3c(-c4ccc(F)cc4)[nH]c4c(F)cc(F)cc43)C2)n1 [Compound 106] | 
> 1000 nM | CCS(=O)(=O)NCC(=O)N[C@H]1C[C@H](c2c(-c3ccc(F)cc3)[nH]c3c(F)cc(F)cc32)C1 [Compound 108] | 
> 1000 nM | O=C(CC1CS(=O)(=O)C1)N[C@H]1C[C@H](c2c(-c3ccc(F)cc3)[nH]c3c(F)cc(F)cc32)C1 [Compound 101] | 
< 250 nM | CC(C)(C)OC(=O)N[C@@H](CO)C(=O)NC[C@H]1C[C@H](c2c(-c3ccc(F)cc3)[nH]c3c(F)cc(F)cc32)C1 [Compound 193] | 
< 250 nM | O=C(N[C@H]1C[C@H](c2c(-c3ccc(F)cc3)[nH]c3c(F)cc(F)cc32)C1)C1(O)CC1 [Compound 135] | 
< 250 nM | NS(=O)(=O)NC[C@H]1C[C@H](c2c(-c3ccc(F)cc3)[nH]c3c(F)cc(F)cc32)C1 [Compound 372] | 
< 250 nM | O=C(N[C@H]1C[C@H](c2c(-c3ccc(F)cc3)[nH]c3c(F)cc(F)cc32)C1)C(F)F [Compound 144] | 
250 to 1000 nM | CC(C)C(O)C(=O)N[C@H]1C[C@H](c2c(-c3ccc(F)cc3)[nH]c3c(F)cc(F)cc32)C1 (stereo partly shown) [Compound 93] | 
> 1000 nM | CN(CC(O)CO)S(=O)(=O)NC[C@H]1C[C@H](c2c(-c3ccc(F)cc3)[nH]c3c(F)cc(F)cc32)C1 (stereo partly shown) [Compound 361] | 
> 1000 nM | CC(=O)NC[C@]1(O)C[C@@H](c2c(-c3ccc(F)cc3)[nH]c3c(F)cc(F)cc32)C1 [Compound 431, N-(((1s,3s)-3-(5,7-difluoro-2-(4-fluorophenyl)-1H-indol-3-yl)-1-hydroxycyclobutyl)methyl)acetamide] | 
> 1000 nM | Cc1[nH]cnc1CCNS(=O)(=O)NC[C@H]1C[C@H](c2c(-c3ccc(F)cc3)[nH]c3c(F)cc(F)cc32)C1 [Compound 334] | 
> 1000 nM | O=C1CC(C(=O)NC[C@H]2C[C@@H](c3c(-c4ccc(F)cc4)[nH]c4c(F)cc(F)cc43)C2)CC(=O)N1 [Compound 291] | 
> 1000 nM | O=C(CC1(O)CCCCC1)N[C@H]1C[C@H](c2c(-c3ccc(F)cc3)[nH]c3c(F)cc(F)cc32)C1 [Compound 113] | 
> 1000 nM | O=C(CC1(O)CCCCC1)NC[C@H]1C[C@@H](c2c(-c3ccc(F)cc3)[nH]c3c(F)cc(F)cc32)C1 [Compound 316] | 
> 1000 nM | Fc1ccc(-c2[nH]c3c(F)cc(F)cc3c2[C@H]2C[C@H](CNc3nnc(C(F)(F)F)s3)C2)cc1 [Compound 423, N-(((1r,3r)-3-(5,7-difluoro-2-(4-fluorophenyl)-1H-indol-3-yl)cyclobutyl)methyl)-5-(trifluoromethyl)-1,3,4-thiadiazol-2-amine] | 
> 1000 nM | CC1(C(=O)NC[C@H]2C[C@@H](c3c(-c4ccc(F)cc4)[nH]c4c(F)cc(F)cc43)C2)CCC(=O)NC1 (mixture of isomers) [Compound 306] | 
